# Data from EPA's ToxRefDB 2.
# Columns and labels:
# mouse [1] = conditions: Subchronic oral toxicity in rodents, cd1, Feed, dose end: 13 week, group: systemic
# dog [2] = conditions: Subchronic oral toxicity in nonrodent, beagle, Capsule, dose end: 13 week, group: systemic
# rabbit [3] = conditions: Prenatal developmental toxicity study, himalayan, Dermal, Topical, dose end: 19 GD
# rat [4] = conditions: Combined chronic toxicity/carcinogenicity, sprague dawley, Oral, Feed, dose end: 104 week, group: systemic
# dog [5] = conditions: Chronic toxicity; beagle; Oral; Capsule; dose end: 1 year; group: systemic; systemic / in life observation / body weight / body weight gain + systemic / in life observation / clinical signs / emesis + systemic / in …
# rat [6] = conditions: Prenatal developmental toxicity study, sprague dawley, Oral, Gavage/Intubation, dose end: 15 GD
# dog [7] = conditions: Chronic toxicity; beagle; Oral; Capsule; dose end: 1 year; group: systemic; systemic / in life observation / body weight / body weight gain + systemic / in life observation / clinical signs / emesis + systemic / in …; remark: listed apart in the source
# rat [8] = conditions: Multigenerational reproductive toxicity study, sprague dawley, Oral, Feed, dose end: 2 generation
# mouse [9] = conditions: Carcinogenicity, cd1, Oral, Feed, dose end: 78 week, group: systemic
# rat [10] = conditions: Subchronic oral toxicity in rodents, other, Feed, dose end: 13 week
# mouse [11] = conditions: Carcinogenicity, b6c3f1, Oral, Feed, dose end: 24 month, group: systemic
# rabbit [12] = conditions: Prenatal developmental toxicity study, new zealand white, Oral, Gavage/Intubation, dose end: 18 GD
# rat [13] = conditions: Prenatal developmental toxicity study, sprague dawley, Oral, Gavage/Intubation, dose end: 15 GD; remark: listed apart in the source
# rat [14] = conditions: Multigenerational reproductive toxicity study, fischer, Oral, Feed, dose end: 2 generation
# mouse [15] = conditions: Carcinogenicity, b6c3f1, Oral, Feed, dose end: 24 month, group: systemic; remark: listed apart in the source
# dog [16] = conditions: Chronic toxicity; beagle; Oral; Feed; dose end: 53 week; group: systemic; systemic / clinical chemistry / alkaline phosphatase (alp/alk) / alkaline phosphatase (alp/alk) + systemic / clinical chemistry / …
# rat [17] = conditions: Combined chronic toxicity/carcinogenicity, fischer, Oral, Feed, dose end: 24 month, group: systemic
# mouse [18] = conditions: Subchronic oral toxicity in rodents, b6c3f1, Feed, dose end: 96 day, group: systemic, systemic / organ weight / liver / absolute + systemic / organ weight / liver / relative to body weight + systemic / organ weight / liver / …
# [19] = systemic / clinical chemistry / glucose / glucose
# [20] = systemic / in life observation / body weight / body weight gain
# [21] = systemic / in life observation / body weight / body weight gain + systemic / in life observation / clinical signs / emesis + systemic / in …
# [22] = systemic / in life observation / clinical signs / soft stools + systemic / in life observation / food consumption / food consumption
# [23] = group: developmental, developmental / developmental malformation / bone / incomplete ossification
# [24] = group: maternal, systemic / in life observation / clinical signs / erythema + systemic / in life observation / clinical signs / scabbing + systemic / …
# [25] = systemic / clinical chemistry / alanine aminotransferase (alt/sgpt) / alanine aminotransferase (alt/sgpt) + systemic / in life observation…
# [26] = group: developmental, developmental / developmental malformation / bone / incomplete ossification + systemic / in life observation / body weight / fetal weight
# [27] = group: maternal, systemic / in life observation / body weight / body weight gain + systemic / in life observation / food consumption / food consumption
# [28] = group: maternal, systemic / in life observation / body weight / body weight gain + systemic / in life observation / food consumption / food consumption + …
# [29] = group: offspring, systemic / in life observation / body weight / offspring (pup) weight
# [30] = group: parental, systemic / in life observation / body weight / body weight + systemic / in life observation / body weight / body weight gain + systemic / in…
# [31] = systemic / in life observation / body weight / body weight gain + systemic / in life observation / food consumption / food efficiency + …
# [32] = systemic / organ weight / brain / relative to body weight
# [33] = group: cholinesterase, cholinesterase / cholinesterase / cholinesterase / cholinesterase (che)
# [34] = group: systemic, systemic / clinical chemistry / urea nitrogen / urea nitrogen
# [35] = systemic / pathology microscopic / intestine small / hyperplasia + systemic / pathology microscopic / intestine small / hypertrophy + …
# [36] = group: developmental, developmental / developmental malformation / bone / misshapen
# [37] = group: maternal, systemic / in life observation / body weight / body weight gain + systemic / organ weight / liver / absolute + systemic / organ weight / …
# [38] = group: developmental, developmental / developmental malformation / bone / incomplete ossification + developmental / developmental malformation / bone / short …
# [39] = group: maternal, systemic / in life observation / body weight / body weight + systemic / in life observation / body weight / body weight gain + systemic / in…
# [40] = group: offspring, systemic / in life observation / body weight / offspring (pup) weight + systemic / pathology microscopic / liver / vacuolization
# [41] = group: parental, systemic / organ weight / liver / absolute + systemic / organ weight / liver / relative to body weight
# [42] = systemic / pathology gross / intestine small / discolored + systemic / pathology microscopic / intestine small / [other] + systemic / …
# [43] = systemic / in life observation / body weight / body weight gain + systemic / pathology microscopic / kidney / adenocarcinoma + systemic / …
structure (smiles),measurement,setting,value
CC(C)(C)c1ccc(CSc2cnn(C(C)(C)C)c(=O)c2Cl)cc1 [Pyridaben],LEL,mouse [1]; [19],4.07 mg/kg/day
same,NEL,mouse [1]; [19],< 4.07 mg/kg/day
same,LOAEL,mouse [1]; [20],13 mg/kg/day
same,NOAEL,mouse [1]; systemic / in life observation / body weight / body weight gain + systemic / clinical chemistry / alkaline phosphatase (alp/alk) / alkaline …,4.07 mg/kg/day
same,LOAEL,dog [2]; [21],4 mg/kg/day
same,NOAEL,dog [2]; [21],1 mg/kg/day
same,LEL,dog [2]; [22],0.5 mg/kg/day
same,NEL,dog [2]; [22],< 0.5 mg/kg/day
same,LEL,rabbit [3]; [23],450 mg/kg/day
same,LOAEL,rabbit [3]; [23],450 mg/kg/day
same,NEL,rabbit [3]; [23],170 mg/kg/day
same,NOAEL,rabbit [3]; [23],170 mg/kg/day
same,LEL,rabbit [3]; [24],70 mg/kg/day
same,LOAEL,rabbit [3]; [24],70 mg/kg/day
same,NEL,rabbit [3]; [24],< 70 mg/kg/day
same,NOAEL,rabbit [3]; [24],< 70 mg/kg/day
same,LOAEL,rat [4]; [25],5 mg/kg/day
same,NEL,rat [4]; [25],0.4 mg/kg/day
same,LEL,rat [4]; systemic / urinalysis / volume / volume,1.13 mg/kg/day
same,LEL,dog [5],0.5 mg/kg/day
same,LOAEL,dog [5],0.5 mg/kg/day
same,NEL,dog [5],< 0.5 mg/kg/day
same,NOAEL,dog [5],< 0.5 mg/kg/day
same,LEL,rat [6]; [26],30 mg/kg/day
same,LOAEL,rat [6]; [26],30 mg/kg/day
same,NEL,rat [6]; [26],13 mg/kg/day
same,NOAEL,rat [6]; [26],13 mg/kg/day
same,LEL,rat [6]; [27],13 mg/kg/day
same,LOAEL,rat [6]; [27],13 mg/kg/day
same,NEL,rat [6]; [28],5.7 mg/kg/day
same,NOAEL,rat [6]; [28],5.7 mg/kg/day
same,LEL,dog [7],1 mg/kg/day
same,LOAEL,dog [7],1 mg/kg/day
same,NEL,dog [7],< 1 mg/kg/day
same,NOAEL,dog [7],< 1 mg/kg/day
same,LEL,rat [8]; [29],6.31 mg/kg/day
same,LOAEL,rat [8]; [29],> 6.31 mg/kg/day
same,NEL,rat [8]; [29],2.2 mg/kg/day
same,NOAEL,rat [8]; [29],≥ 6.31 mg/kg/day
same,LOAEL,rat [8]; [30],6.31 mg/kg/day
same,NOAEL,rat [8]; [30],2.2 mg/kg/day
same,LEL,"rat [8]; group: parental, systemic / organ weight / ovary / absolute",2.41 mg/kg/day
same,NEL,"rat [8]; group: parental, systemic / organ weight / ovary / absolute + systemic / in life observation / body weight / body weight + systemic / in life observation / …",0.94 mg/kg/day
same,LOAEL,mouse [9]; [31],8.88 mg/kg/day
same,NOAEL,mouse [9]; [31],2.78 mg/kg/day
same,LEL,mouse [9]; [32],0.26 mg/kg/day
same,NEL,mouse [9]; [32],< 0.26 mg/kg/day
same,LEL,rat [10]; [33],27.7 mg/kg/day
same,LOAEL,rat [10]; [33],> 27.7 mg/kg/day
same,NEL,rat [10]; [33],12.8 mg/kg/day
same,NOAEL,rat [10]; [33],≥ 27.7 mg/kg/day
same,LEL,rat [10]; [34],2.3 mg/kg/day
same,NEL,rat [10]; [34],< 2.3 mg/kg/day
same,LOAEL,"rat [10]; group: systemic, systemic / in life observation / body weight / body weight gain + systemic / in life observation / food consumption / food efficiency",5.53 mg/kg/day
same,NOAEL,"rat [10]; group: systemic, systemic / in life observation / body weight / body weight gain + systemic / in life observation / food consumption / food efficiency + …",2.64 mg/kg/day
Clc1cccc(C(Cl)(Cl)Cl)n1 [Nitrapyrin],LOAEL,mouse [11]; [35],125 mg/kg/day
same,NOAEL,mouse [11]; [35],< 125 mg/kg/day
same,NEL,mouse [11]; systemic / pathology microscopic / liver / hypertrophy + systemic / pathology microscopic / stomach / hyperkeratosis + systemic / pathology …,250 mg/kg/day
same,LEL,rabbit [12]; [36],30 mg/kg/day
same,LOAEL,rabbit [12]; [36],30 mg/kg/day
same,NEL,rabbit [12]; [36],10 mg/kg/day
same,NOAEL,rabbit [12]; [36],10 mg/kg/day
same,LEL,rabbit [12]; [37],30 mg/kg/day
same,LOAEL,rabbit [12]; [37],30 mg/kg/day
same,NEL,rabbit [12]; [37],10 mg/kg/day
same,NOAEL,rabbit [12]; [37],10 mg/kg/day
same,LEL,rat [13]; [38],120 mg/kg/day
same,LOAEL,rat [13]; [38],120 mg/kg/day
same,NEL,rat [13]; [38],50 mg/kg/day
same,NOAEL,rat [13]; [38],50 mg/kg/day
same,LOAEL,rat [13]; [39],120 mg/kg/day
same,NEL,rat [13]; [39],15 mg/kg/day
same,NOAEL,rat [13]; [39],50 mg/kg/day
same,LEL,"rat [13]; group: maternal, systemic / in life observation / body weight / body weight gain",50 mg/kg/day
same,LOAEL,rat [14]; [40],75 mg/kg/day
same,NEL,rat [14]; [40],20 mg/kg/day
same,NOAEL,rat [14]; [40],20 mg/kg/day
same,LEL,"rat [14]; group: offspring, systemic / in life observation / body weight / offspring (pup) weight + systemic / pathology microscopic / liver / vacuolization + systemic…",75 mg/kg/day
same,NOAEL,"rat [14]; group: parental, systemic / organ weight / kidney / absolute + systemic / organ weight / kidney / relative to body weight + systemic / in life observation / …",5 mg/kg/day
same,LOAEL,"rat [14]; group: parental, systemic / organ weight / kidney / absolute + systemic / organ weight / kidney / relative to body weight + systemic / organ weight / liver…",20 mg/kg/day
same,LEL,rat [14]; [41],5 mg/kg/day
same,NEL,rat [14]; [41],< 5 mg/kg/day
same,LOAEL,mouse [15]; [42],75 mg/kg/day
same,NEL,mouse [15]; [42],5 mg/kg/day
same,NOAEL,mouse [15]; [42],25 mg/kg/day
same,LEL,mouse [15]; systemic / pathology microscopic / intestine small / [other] + systemic / pathology gross / intestine small / discolored + systemic / …,25 mg/kg/day
same,LEL,dog [16],15 mg/kg/day
same,LOAEL,dog [16],15 mg/kg/day
same,NEL,dog [16],3 mg/kg/day
same,NOAEL,dog [16],3 mg/kg/day
same,LOAEL,rat [17]; [20],20 mg/kg/day
same,LEL,rat [17]; systemic / in life observation / body weight / body weight gain + systemic / in life observation / body weight / body weight,20 mg/kg/day
same,NEL,rat [17]; [43],5 mg/kg/day
same,NOAEL,rat [17]; [43],5 mg/kg/day
same,LEL,mouse [18],200 mg/kg/day
same,LOAEL,mouse [18],200 mg/kg/day
same,NEL,mouse [18],< 200 mg/kg/day
same,NOAEL,mouse [18],< 200 mg/kg/day
